Data set [1] relates to 5×FAD Alzheimer's disease-induced mice. In words: Morris water maze test in Alzheimer's disease-induced mice. Type of data set: in vivo, mouse. Conditions: 5×FAD mice; for memory of the platform site (water maze test): oral 10 mg/kg for 16 weeks from 8 weeks of age, platform removed on Day 6, FIG. 13. The method, then:
(§1) […] Thereafter, Y-maze and Morris water maze tests were performed, which are widely used to check cognitive function. Specifically, short-term memory was assessed through the Y-maze test. The Morris water maze test was performed one week after the Y-maze test. Each mouse was trained to remember the location of the platform for 5 days, and then the time for the mouse to reach the platform was measured. On day 6 after the platform memory training, the platform was removed from the water tank, and the frequency of mouse staying at the site where the platform had been located was measured.
In the water maze test, the mice were trained to find a platform placed under the surface in a water tank for 5 days, and then on Day 6, the platform was removed, and it was monitored how well the mice remembered the site where the platform had been located.

In a further data set the test system is cells. In words: Cytotoxicity of each compound. It counts as cell-based. Conditions: FIG. 11C. The method, then: (§2) In addition, cells were treated with each compound together with the induction of polyglutamine protein aggregation, and the reduction in amount of protein aggregation in the cells was observed using a fluorescence microscope. The total area of protein aggregation occurring in the cells, average size of protein aggregation, and inhibition rate of protein aggregation compared with the drug-untreated control group are shown in the table. The cytotoxicity of each compound was also examined.

The next data set relates to Aβ amyloid aggregates. In words: Immunohistochemistry staining of Aβ amyloid aggregates in brain slices. The note with it: hippocampus and frontal lobe tissues; mice fed with gossypetin; FIGS. 6A to 6F. Type of data set: in vivo, mouse. The method, then:
The brains were extracted from the groups of Alzheimer's disease-induced mice fed and not fed with gossypetin and were made into slices, and then the formation of Aβ amyloid aggregates was analyzed using immunohistochemistry staining.

The subject of the next data set is microglia and astrocytes. In words: Gliosis analysis with IBA-1 and GFAP antibodies in brain slices. It counts as in vivo, mouse. The note with it: hippocampus and frontal lobe tissues; FIGS. 8 and 9. The method, then: The brains were extracted from the groups of Alzheimer's disease-induced mice fed and not fed with gossypetin and were made into slices, and then the distribution and proliferation of microglia and astrocytes were analyzed using an antibody against IBA-1, a specific protein of microglia, and an antibody against GFAP, a specific protein of astrocytes.

For data set [2], the target named is T1, VRK2 (Homo sapiens, UniProt Q86Y07). In words: Binding between VRK2 and gossypetin-Sepharose 4B. The text has this: First, gossypetin was chemically bound to Sepharose 4B (FIG. 2A), and then the binding between gossypetin and VRK2 was investigated.
Another data set relates to chaperone protein CCT-4. In words: Chaperone protein preservation (amount of CCT-4). Conditions: addition of gossypetin; FIG. 2E.
Data set [3] concerns the target T1, VRK2. In words: VRK2 activity inhibition (in vitro kinase assay, autophosphorylation). Type of data set: biochemical. The text has this:
The kinase VRK2 is known to prevent the elimination of polyglutamine aggregates by regulating TRiC chaperone protein in cells.
The cytotoxicity of each compound was also examined.

In data set [4] the test system is U2OS cells expressing VRK2. In words: Intracellular polyglutamine protein aggregation (dot blot, electrophoresis, microscopy), different concentrations of gossypetin. Type of data set: cell-based. The method, then:
Polyglutamine protein aggregation is a cause of a degenerative brain disease. In order to investigate the polyglutamine protein aggregation inhibitory effect of gossypetin, U2OS cells expressing VRK2 were treated with different concentrations of gossypetin after the expression of a green fluorescent protein-conjugated polyglutamine protein, and a dot blot assay was performed. The protein aggregates formed in the cells were observed via electrophoresis, and the intracellular protein aggregate formation was observed using a microscope and quantitatively expressed.

In data set [5] the test system is 5×FAD Alzheimer's disease-induced mice. In words: Y-maze test in Alzheimer's disease-induced mice. Type of data set: in vivo, mouse. The note with it: for cognitive function (Y-maze test): 5×FAD mice, oral 10 mg/kg for 15 weeks from 8 weeks of age, FIG. 12. The method, then:
as §1

In data set [6] the test system is polyglutamine protein aggregation in the cells. In words: Intracellular polyglutamine protein aggregation, comparison of compounds (fluorescence microscope). It counts as cell-based. The note with it: compared with the drug-untreated control group; FIGS. 11A and 11B. The method, then:
as §2

T1 sequence (Q86Y07 whole entry, species assumed): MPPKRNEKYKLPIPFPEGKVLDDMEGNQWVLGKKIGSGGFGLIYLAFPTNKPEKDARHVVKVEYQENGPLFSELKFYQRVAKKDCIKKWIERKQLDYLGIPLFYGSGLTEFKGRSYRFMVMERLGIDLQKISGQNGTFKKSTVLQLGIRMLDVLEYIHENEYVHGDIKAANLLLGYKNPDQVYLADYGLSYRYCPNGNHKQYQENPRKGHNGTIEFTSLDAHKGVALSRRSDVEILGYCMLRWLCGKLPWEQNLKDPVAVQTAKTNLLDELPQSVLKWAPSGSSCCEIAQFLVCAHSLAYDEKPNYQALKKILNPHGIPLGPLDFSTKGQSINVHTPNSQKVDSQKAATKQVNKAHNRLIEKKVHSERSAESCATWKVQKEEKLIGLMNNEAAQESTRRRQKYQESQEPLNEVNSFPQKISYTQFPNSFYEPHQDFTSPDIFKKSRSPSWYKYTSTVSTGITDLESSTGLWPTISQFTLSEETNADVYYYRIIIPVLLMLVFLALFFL

Take `O=c1c(O)c(-c2ccc(O)c(O)c2)oc2c(O)c(O)cc(O)c12` [gossypetin, 2-(3,4-dihydroxyphenyl)-3,5,7,8-tetrahydroxy-4H-chromen-4-one]: the “time to find the platform (escape latency)” value in data set [1] (oral 10 mg/kg for 14 weeks, 5 days training, FIG. 4) is given as “found the platform in a shorter amount of time which was almost as fast as normal mice”. Besides, in [1] (oral 10 mg/kg for 14 weeks, platform removed, day 6, FIG. 5), the “frequency of staying at the site where the platform had been located” value was “increased frequency of staying at the site where the platform had been located”. Further, in data set [1], the “memory of the platform site (water maze test)” value is given as “excellent memory comparable to normal mice”. Further, the cytotoxicity result with cells is on record as “not showing toxicity in cells”. Also, the Aβ amyloid aggregates result in the data set with Aβ amyloid aggregates is “significantly reduced”. Further, the “hyperactivity of microglia and astrocytes (gliosis)” value in the data set with microglia and astrocytes is reported as “significantly reduced”. On VRK2 [2] (addition of gossypetin, FIG. 2C), the “interaction between gossypetin and VRK2 (competition by added gossypetin)” value was “specific”. Moreover, the “binding between gossypetin and VRK2” value on VRK2 [2] (gossypetin-Sepharose 4B vs Sepharose 4B, FIG. 2B) was “VRK2 and gossypetin bound to each other”. Besides, the “amount of the chaperone protein CCT-4” value in the data set with chaperone protein CCT-4 was “not decreased but increased”. Further, at VRK2 [3] (different concentrations of gossypetin, FIG. 2D), the VRK2 activity result is reported as “inhibited depending on the concentration of gossypetin”. Moreover, at VRK2 [3] (same concentration of 25 μM, FIG. 10), the “autophosphorylation activity of VRK2” value was “most strongly inhibited”. Also, the “number of protein aggregate-bearing cells” value in data set [4] (FIGS. 1F to 1H) is recorded as “decreased”. Moreover, in data set [4] (different concentrations of gossypetin, FIGS. 1A and 1B), the polyglutamine protein aggregates entry was “reduced depending on the gossypetin concentration”. For the same compound, the “cognitive function (Y-maze test)” value in [5] is recorded as “restored the behavioral alteration to an almost normal level”. Moreover, the “short-term memory (Y-maze test)” value in data set [5] (7-week-old 5×FAD mice, oral 10 mg/kg for 14 weeks, FIG. 3C) is “improvement in short-term memory to a level similar to that of normal mice”. The “inhibition of the intracellular protein aggregation” value in [6] stood at 43%.

For `O=C(/C=C/c1ccc(O)c(O)c1)O[C@H](Cc1ccc(O)c(O)c1)C(=O)O` [rosmarinic acid, reference compound], in data set [1], the “memory of the platform site (water maze test)” value is “not significantly restored”. In addition, the “cognitive function (Y-maze test)” value in [5] is recorded as “did not contribute to the alleviation of such cognitive function decline”.
